Data set [1] concerns HPV 6/11. The data set is described as follows: Drug screening by quantitative fluorescent PCR analysis of HPV 6/11 in condyloma acuminata homogenate. Further details: species or system human papillomavirus (HPV).
Data set [2] relates to HPV 16/18. The data set is described as follows: Drug screening by quantitative fluorescent PCR analysis of HPV 16/18 in condyloma acuminata homogenate. Also noted: species or system human papillomavirus (HPV).
In data set [3] the test system is condyloma acuminata. The data set is described as follows: Clinical use in treating condyloma acuminata. The data set is classed as in vivo, human. The text has this:
Soft hyperplasia with nipple or cauliflower shaped or other shaped warts were found around the skin of the cunnus or anus. The result from 5% acetate acid white test was positive.
Patients selected for the clinical observation must meet the above standards. Plus the diameter of their skin lesions should equal to or be less than 1 cm. […] Patients who had vaginal yeast, trichomonas, bacteria infection or other complications, chronic diseases, serious liver or kidney diseases or women in pregnancy or lactation were not selected. Treatments to women would not be conducted in their menstrual periods.
50 qualified patients were selected and randomly divided into five groups to be tested with p-hydroxybenzoic acid, gallic acid, ethyl p-hydroxybenzoate, propyl gallate and recombinant human interferon α-2β gel, respectively. The samples of p-hydroxybenzoic acid, gallic acid, ethyl p-hydroxybenzoate and propyl gallate were prepared as described in Example 1. The patients were treated with the test sample to the affected areas three times a day, in the morning, at noon and night. The samples were applied to cover the warts and the patients were required to leave the treated areas exposed and not to move for 20 minutes.
Observation time: 8 days. Patients not cured after 8 days would continue to use the test samples for another 12 weeks, and their prognosis was followed during the 12-week period.
Observed items: the location, shape, size and number of warts were carefully observed and recorded before the treatment.
“Recovered”: all skin lesions had disappeared;
“Obvious Effect”: more than 70% of the skin lesions had disappeared;
“Improved”: more than 30% of the skin lesions had disappeared;
“Not Effective”: less than 30% of the skin lesions had disappeared or the original skin lesions didn't change or even enlarged.

Data set [4] concerns secretion of HBsAg by 2.2.15 cells. The data set is described as follows: Inhibition of secretion of HBsAg by Hepatitis B 2.2.15 cell line. In kind it is cell-based, HBV. As to conditions: 1 μmol/ml. The text has this:
(§1) Hepatitis B 2.2.15 cell line was transfected by HBV DNA (purchased from Institute of Biochemistry and Cell Biology of Shanghai Institute for Biological Sciences or the National Center for Drug Screening) and used as the cell model for screening anti-HBV drug compounds (See Chinese Journal Of Integrated Traditional and Western Medicine on Liver Diseases, 2004, 14(3): 158). The cell culture medium DMEM (GIBCO Company), bovine serum (Hangzhou Siji Qing Biochemical Manufacturer), G418 (GIBCO Company), 3-(4,5-dimethylthiazol-2-yl)-2,5-diphenyltetrazoliumbromide (Sigma), HBsAg and HBeAg diagnostic kit (Shanghai Kehua Bio-engineering Co., Ltd).
(§2) The test compounds listed in Table 3 below were dissolved in a mixture containing 20 ml 1,2-propylene glycol and 15 ml Tween-80 and diluted with sterile saline water to 2 μmol/ml of the test compound. Then it was mixed with the cell culture medium at equal volume to obtain a solution containing 1 μmol/ml of the tested compound. Cells at the concentration of 1×10^5 cells per milliliter were inoculated to a 24-well plate at 1 ml/well. Supernatant from the cell culture mixture was collected three days later for testing.

Data set [5] has as its system secretion of HBeAg by 2.2.15 cells. The data set is described as follows: Inhibition of secretion of HBeAg by Hepatitis B 2.2.15 cell line. The data set is classed as cell-based, HBV. As to conditions: 1 μmol/ml.
Source text: as §1, §2

In data set [6] the test system is HSV infection. Briefly: External treatment of HSV infection in clinical tests. In kind it is in vivo, human. As to conditions: patients with HSV infection, applied on affected areas three times a day. An excerpt:
Twenty-two patients who were clinically diagnosed with HSV infection were randomly selected and divided into two groups. Acyclovir ointment and micro emulsion containing propyl gallate prepared as described in Example 1 were applied to the two groups, respectively, on the affected areas of the patients three times a day.

Data set [7] is classed as physicochemical. How it is done:
20 ml 1,2-propylene glycol, 15 ml Tween-80 and 5 ml azone were mixed together and sterile distilled water was added to bring the volume to 100 ml. The pH value of the solution was adjusted to pH 6.8 with NaOH or HCl to obtain a micro emulsion. 10 g propyl gallate and 10 g gallic acid were dissolved in the micro emulsion, respectively, and mixed well. 10 ml of each micro emulsion was added to a capped transparent glass tube. Both solutions were colorless. The absorbance of the two solutions at 400˜500 nm was measured with spectrophotometry and their absorbance was under 0.15. […] Measured by spectrophotometry again, the absorbance of the gallic acid solution was 1.2 and that of the propyl gallate solution was 0.4.

The mark [8] stands for this setting: 24 hours after adding the test compound.
Where [9] appears, read: number of patients, more than 70% of the skin lesions disappeared.
The mark [10] stands for this setting: 2.2.15 cells, supernatant collected three days later.

For `O=C(O)c1cc(O)c(O)c(O)c1` [Gallic acid], the “HPV 6/11 Virus (copies/ml)” value in data set [1] (50 μl 10% micro emulsion + 50 μl HPV sample homogenate, 37° C., 24 hours, saline control 1.45 × 10^6) stood at 0 copies/ml. The “HPV 6/11 detected by FQ-PCR (in words)” value in data set [1] (setting [8]) was “no HPV 6/11 or HPV 16/18 was detected”. In addition, the “HPV 16/18 Virus (copies/ml)” value in data set [2] (50 μl 10% micro emulsion + 50 μl HPV sample homogenate, 37° C., 24 hours, saline control 1.40 × 10^5) was 0 copies/ml. In addition, in data set [2] (setting [8]), the “HPV 16/18 detected by FQ-PCR (in words)” value is on record as “no HPV 6/11 or HPV 16/18 was detected”. Besides, the “treatment effect compared to recombinant human interferon α-2β gel” value in data set [3] (condyloma acuminata patients, 10% micro emulsion) was “more apparent treatment effect”. Also, in data set [3] (number of patients (50 patients in five groups), 10% micro emulsion on affected areas three times a day, all skin lesions disappeared), the “Recovered, 1-4 days” value turned out to be 2. Further, in data set [3] (number of patients, more than 30% of the skin lesions disappeared, observation 8 days), the Improved came to 4. In data set [3] (setting [9]), the “Obvious Effect, 1-4 days” value is 3 and the “Obvious Effect, 5-8 days” value stood at 1. Also, the “effect on the secretion of HBsAg by the 2.2.15 cells (in words)” value in data set [4] is recorded as “had inhibition effect”. For the same compound, the “HBsAg Inhibition rate” value in data set [4] (setting [10]) stood at 8.83%. For the same compound, in data set [5], the “effect on the secretion of HBeAg by the 2.2.15 cells (in words)” value was “had inhibition effect”. Moreover, the “HBeAg Inhibition Rate” value in data set [5] (setting [10]) was 9.40%. Also, the “average time for recovery” value in data set [6] was determined as 3 days. Also, the “colour of solution, initial” value in data set [7] (micro emulsion pH 6.8, freshly prepared) is listed as “colorless”. The “absorbance after 30 days” value in data set [7] (micro emulsion pH 6.8, kept at room temperature for 30 days, 400˜500 nm) is recorded as 1.2. For the same compound, the “colour of solution after 30 days” value in data set [7] (micro emulsion pH 6.8, room temperature for 30 days) was “light brown”.

The values above are taken from patent publication US8044098B2, “Use of hydroxybenzoic acids and their esters and analogues for preventing or treating virus infection” (Shenghua Guangzhou Pharmaceutical Science & Technology Co., …, priority 2005, dated 2011).
